Laboratory results: patent US20240025863A1, “SOS1 PROTEIN DEGRADERS, PHARMACEUTICAL COMPOSITIONS THEREOF, AND THEIR THERAPEUTIC APPLICATIONS” (BioTheryX, Inc., priority 2020, published 2024)

How the values were obtained:
Type in all cases: cell-based
H358 cells (G12C) = experiment: Cell viability assay (CellTiter-Glo), H358 cells; settings: Homo sapiens, NCI-H358, 72 h; H358 cells, 3 days incubation, CellTiter-Glo luminescence; read-out: Inhibition of Cancerous Cells IC50 H358 (G12C)
How it was run: (§1)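 Viability is measured by CellTiter-Glo luminescence following a 3-day compound incubation at 37 °C in medium with 2.5% FBS.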

AsPC-1 cells (G12D) = experiment: Cell viability assay (CellTiter-Glo), AsPC-1 cells; settings: Homo sapiens, ASPC1, 72 h, 3 days incubation, CellTiter-Glo luminescence, read-out: Inhibition of Cancerous Cells IC50 AsPC-1 (G12D)
Experimental: H358, H23, SW48, and AsPC-1 cells were cultured in RPMI 1640 media supplemented with 10% fetal bovine serum, streptomycin, and penicillin. Lovo and SW480 cells were cultured in DMEM media supplemented with 10% fetal bovine serum, streptomycin, and penicillin. The cell lines were plated in their respective medium supplemented with 2.5% fetal bovine serum, streptomycin, and penicillin. All cell lines were plated in white walled 96-well plates at 2,000 cells/well or 384-well plates at 500 cells/well, except Lovo, which were plated at 4,000 or 1,000 cells/well, respectively. The cells were incubated in DMSO (control) or a compound for 3 days at 37° C. under 5% CO2. A CELLTITER-GLO® reagent (100 μL) was then added to each well. After a 10 min incubation with shaking, luminescence was measured using an ENVISION® multimode plate reader.

SW480 cells (G12V) = experiment: Cell viability assay (CellTiter-Glo), SW480 cells; settings: Homo sapiens, 72 h; SW480 cells, 3 days incubation, CellTiter-Glo luminescence; read-out: Inhibition of Cancerous Cells IC50 SW480 (G12V)
How it was run: as §1

Lovo cells (G13D) = experiment: Cell viability assay (CellTiter-Glo), Lovo cells; settings: Homo sapiens, 72 h; Lovo cells, 3 days incubation, CellTiter-Glo luminescence; read-out: Inhibition of Cancerous Cells IC50 Lovo (G13D)
How it was run: as §1

SW48 cells (wt) = experiment: Cell viability assay (CellTiter-Glo), SW48 cells; settings: Homo sapiens, 72 h; SW48 cells, 3 days incubation, CellTiter-Glo luminescence; read-out: Inhibition of Cancerous Cells IC50 SW48 (wt)
How it was run: as §1

Compound | IC50 (H358 cells (G12C)) [nM] | IC50 (AsPC-1 cells (G12D)) [nM] | IC50 (SW480 cells (G12V)) [nM] | IC50 (Lovo cells (G13D)) [nM] | IC50 (SW48 cells (wt)) [nM]
COc1cc2c(N[C@H](C)c3cccc(Br)c3)nc(C)nc2cc1OCCCCCCC(=O)N1CCC(c2cc(F)cc3c2CN(C2CCC(=O)NC2=O)C3=O)CC1 (stereo partly drawn) [Compound A59, 3-(4-(1-(7-((4-(((R)-1-(3-Bromophenyl)ethyl)amino)-6-methoxy-2-methyl-quinazolin-7-yl)oxy)heptanoyl)piperidin-4-yl)-6-fluoro-1-oxoisoindolin-2-yl)piperidine-2,6-dione] | > 10000 | > 10000 | 4700 | 4900 | 5300
COc1cc2c(N[C@H](C)c3cccc(Br)c3)nc(C)nc2cc1OCCCCCCC(=O)N1CCC(c2cc3c(cc2F)C(=O)N(C2CCC(=O)NC2=O)C3)CC1 (stereo partly drawn) [Compound A60, 3-(5-(1-(7-((4-(((R)-1-(3-Bromophenyl)ethyl)amino)-6-methoxy-2-methyl-quinazolin-7-yl)oxy)heptanoyl)piperidin-4-yl)-6-fluoro-1-oxoisoindolin-2-yl)piperidine-2,6-dione] | > 10000 | 8400 | 4000 | 4300 | 3800
COc1cc2c(N[C@H](C)c3cccc(Br)c3)nc(C)nc2cc1OCCCCCCCCC(=O)N1CCC(c2cc(F)cc3c2CN(C2CCC(=O)NC2=O)C3=O)CC1 (stereo partly drawn) [Compound A61, 3-(4-(1-(9-((4-(((R)-1-(3-Bromophenyl)ethyl)amino)-6-methoxy-2-methyl-quinazolin-7-yl)oxy)nonanoyl)piperidin-4-yl)-6-fluoro-1-oxoisoindolin-2-yl)piperidine-2,6-dione] | > 10000 | > 10000 | 5200 | 6600 | 5900
COc1cc2c(N[C@H](C)c3cccc(Br)c3)nc(C)nc2cc1OCCCCCCCCCCNc1cccc2c1CN(C1CCC(=O)NC1=O)C2=O (stereo partly drawn) [Compound A62, 3-(4-((10-((4-(((R)-1-(3-Bromophenyl)ethyl)amino)-6-methoxy-2-methyl-quinazolin-7-yl)oxy)decyl)amino)-1-oxoisoindolin-2-yl)piperidine-2,6-dione] | > 10000 | > 10000 | 1300 | 4000 | 2400
COc1cc2c(N[C@H](C)c3cccc(Br)c3)nc(C)nc2cc1OCCCCCC(=O)N(C)Cc1scc2c1CN(C1CCC(=O)NC1=O)C2=O (stereo partly drawn) [Compound A63, 6-((4-(((R)-1-(3-Bromophenyl)ethyl)amino)-6-methoxy-2-methylquinazolin-7-yl)oxy)-N-((5-(2,6-dioxopiperidin-3-yl)-4-oxo-5,6-dihydro-4H-thieno[3,4-c]pyrrol-1-yl)methyl)-N-methylhexanamide] | 130 | 3500 | 650 | < 14 | 20
COc1cc2c(N[C@H](C)c3cccc(Br)c3)nc(C)nc2cc1OCCCCCCCCCCCCc1scc2c1CN(C1CCC(=O)NC1=O)C2=O (stereo partly drawn) [Compound A64, 3-(1-(12-((4-(((R)-1-(3-Bromophenyl)ethyl)amino)-6-methoxy-2-methyl-quinazolin-7-yl)oxy)dodecyl)-4-oxo-4H-thieno[3,4-c]pyrrol-5(6H)-yl)piperidine-2,6-dione] | > 10000 | 5500 | 3100 | 2600 | 1200
COc1cc2c(N[C@H](C)c3cccc(Br)c3)nc(C)nc2cc1OCCN1CCC(CN2CCC(c3cc(F)cc4c3CN(C3CCC(=O)NC3=O)C4=O)CC2)CC1 (stereo partly drawn) [Compound A65, 3-(4-(1-((1-(2-((4-(((R)-1-(3-Bromophenyl)ethyl)amino)-6-methoxy-2-methyl-quinazolin-7-yl)oxy)ethyl)piperidin-4-yl)methyl)piperidin-4-yl)-6-fluoro-1-oxoisoindolin-2-yl)-piperidine-2,6-dione] | 1600 | 3300 | 1100 | 1100 | 970
COc1cc2c(N[C@H](C)c3cccc(Br)c3)nc(C)nc2cc1OCCN1CCN(CCN2CCC(c3cc(F)cc4c3CN(C3CCC(=O)NC3=O)C4=O)CC2)CC1 (stereo partly drawn) [Compound A66, 3-(4-(1-(2-(4-(2-((4-(((R)-1-(3-Bromophenyl)ethyl)amino)-6-methoxy-2-methyl-quinazolin-7-yl)oxy)ethyl)piperazin-1-yl)ethyl)piperidin-4-yl)-6-fluoro-1-oxoisoindolin-2-yl)piperidine-2,6-dione] | 8000 | > 10000 | 9700 | 5800 | 3800
COc1cc2c(N[C@H](C)c3cccc(Br)c3)nc(C)nc2cc1OCCN1CCN(CCN2CCC(c3cc4c(cc3F)C(=O)N(C3CCC(=O)NC3=O)C4)CC2)CC1 (stereo partly drawn) [Compound A67, 3-(5-(1-(2-(4-(2-((4-(((R)-1-(3-Bromophenyl)ethyl)amino)-6-methoxy-2-methyl-quinazolin-7-yl)oxy)ethyl)piperazin-1-yl)ethyl)piperidin-4-yl)-6-fluoro-1-oxoisoindolin-2-yl)piperidine-2,6-dione] | 1700 | 2100 | 2700 | 1000 | 1100
COc1cc2c(N[C@@H](C)c3cc(N)cc(C(F)(F)F)c3)nc(C)nc2cc1OCCCCCCCN1CCC(c2cc3c(cc2F)C(=O)N(C2CCC(=O)NC2=O)C3)CC1 (stereo partly drawn) [Compound A68, 3-(5-(1-(7-((4-(((S)-1-(3-Amino-5-(trifluoromethyl)phenyl)ethyl)amino)-6-methoxy-2-methylquinazolin-7-yl)oxy)heptyl)piperidin-4-yl)-6-fluoro-1-oxoisoindolin-2-yl)piperidine-2,6-dione] | 690 | 1500 | 530 | 630 | 500

Continued, values first:

IC50 (H358 cells (G12C)) [nM] | IC50 (AsPC-1 cells (G12D)) [nM] | IC50 (SW480 cells (G12V)) [nM] | IC50 (Lovo cells (G13D)) [nM] | IC50 (SW48 cells (wt)) [nM] | Compound
2400 | 3000 | 980 | 720 | 1100 | CN[C@@H](C)C(=O)N[C@H](C(=O)N1CCC[C@H]1c1nc(C(=O)c2cccc(OCCCCCCOc3cc4nc(C)nc(N[C@H](C)c5cccc(Br)c5)c4cc3OC)c2)cs1)C1CCCCC1 [Compound B1, (S)—N—((S)-2-((S)-2-(4-(3-((6-((4-(((R)-1-(3-bromophenyl)ethyl)amino)-6-methoxy-2-methylquinazolin-7-yl)oxy)hexyl)oxy)benzoyl)thiazol-2-yl)pyrrolidin-1-yl)-1-cyclohexyl-2-oxoethyl)-2-(methylamino)propanamide]
980 | 1200 | 500 | 480 | 980 | CN[C@@H](C)C(=O)N[C@H](C(=O)N1CCC[C@H]1c1nc(C(=O)c2cccc(OCCCCCCCCOc3cc4nc(C)nc(N[C@H](C)c5cccc(Br)c5)c4cc3OC)c2)cs1)C1CCCCC1 [Compound B2, (S)—N—((S)-2-((S)-2-(4-(3-((8-((4-(((R)-1-(3-Bromophenyl)ethyl)amino)-6-methoxy-2-methylquinazolin-7-yl)oxy)octyl)oxy)benzoyl)thiazol-2-yl)pyrrolidin-1-yl)-1-cyclohexyl-2-oxoethyl)-2-(methylamino)propanamide]
2200 | 5000 | 2300 | 1400 | 4700 | CN[C@@H](C)C(=O)N[C@H](C(=O)N1CCC[C@H]1c1nc(C(=O)c2cccc(OCCCCCCCCCCOc3cc4nc(C)nc(N[C@H](C)c5cccc(Br)c5)c4cc3OC)c2)cs1)C1CCCCC1 [Compound B3, (S)—N—((S)-2-((S)-2-(4-(3-((10-((4-(((R)-1-(3-Bromophenyl)ethyl)amino)-6-methoxy-2-methylquinazolin-7-yl)oxy)decyl)oxy)benzoyl)thiazol-2-yl)pyrrolidin-1-yl)-1-cyclohexyl-2-oxoethyl)-2-(methylamino)propanamide]
7600 | > 10000 | > 10000 | 4000 | > 10000 | CN[C@@H](C)C(=O)N[C@H](C(=O)N1CCC[C@H]1c1nc(C(=O)c2cccc(OCCCCCCCCCCCCOc3cc4nc(C)nc(N[C@H](C)c5cccc(Br)c5)c4cc3OC)c2)cs1)C1CCCCC1 [Compound B4, (S)—N—((S)-2-((S)-2-(4-(3-((12-((4-(((R)-1-(3-Bromophenyl)ethyl)amino)-6-methoxy-2-methylquinazolin-7-yl)oxy)dodecyl)oxy)benzoyl)thiazol-2-yl)pyrrolidin-1-yl)-1-cyclohexyl-2-oxoethyl)-2-(methylamino)propanamide]
